In paper PMC8632988, “Inhibition of SYK and cSrc kinases can protect bone and cartilage in preclinical models of osteoarthritis and rheumatoid arthritis” (Scientific Reports, 2021):

What was measured:
Test in all cases: Kinase selectivity profile assay
Type in all cases: biochemical
Settings in all cases: 500 nM; relative to DMSO; read-out: Residual enzymatic activity
RSK1 = target: T1, RSK1 (Homo sapiens, UniProt Q15418)
T1 construct: purchased Reaction Biology Corporation
In short: (§1)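 Radiometric kinase assay run by a standard protocol. Unbound phosphate was removed by washing filters in phosphoric acid, and product radioactivity gave percent remaining kinase activity versus DMSO vehicle reactions. Run in duplicate.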

BRSK1 = target: T2, BRSK1 (Homo sapiens, UniProt Q8TDC3)
T2 construct: purchased Reaction Biology Corporation
In short: as §1

TBK1 = target: T3, TBK1 (Homo sapiens, UniProt Q9UHD2)
T3 construct: purchased Reaction Biology Corporation
In short: as §1

CLK1 = target: T4, CLK1 (Homo sapiens, UniProt P49759)
T4 construct: purchased Reaction Biology Corporation
In short: as §1

DYRK1B = target: T5, DYRK1B (Homo sapiens, UniProt Q9Y463)
T5 construct: purchased Reaction Biology Corporation
In short: as §1

ZAP70 = target: T6, ZAP70 (Homo sapiens, UniProt P43403)
T6 construct: purchased Reaction Biology Corporation
In short: as §1

TYK1/LTK = target: T7, TYK1/LTK (Homo sapiens, UniProt P29376)
T7 construct: purchased Reaction Biology Corporation
In short: as §1

PKCa = target: T8, PKCa (Homo sapiens, UniProt P17252)
T8 construct: purchased Reaction Biology Corporation
In short: as §1

ACK1 = target: T9, ACK1 (Homo sapiens, UniProt Q07912)
T9 construct: purchased Reaction Biology Corporation (assay service)
In short: as §1

CLK3 = target: T10, CLK3 (Homo sapiens, UniProt P49761)
T10 construct: purchased Reaction Biology Corporation
In short: as §1

STK16 = target: T11, STK16 (Homo sapiens, UniProt O75716)
T11 construct: purchased Reaction Biology Corporation
In short: as §1

MYO3b = target: T12, MYO3b (Homo sapiens, UniProt Q8WXR4)
T12 construct: purchased Reaction Biology Corporation
In short: as §1

IRAK1 = target: T13, IRAK1 (Homo sapiens, UniProt P51617)
T13 construct: purchased Reaction Biology Corporation
In short: as §1

EPHA4 = target: T14, EPHA4 (Homo sapiens, UniProt P54764)
T14 construct: purchased Reaction Biology Corporation
In short: as §1

GRK7 = target: T15, GRK7 (Homo sapiens, UniProt Q8WTQ7)
T15 construct: purchased Reaction Biology Corporation
In short: as §1

FGFR1 = target: T16, FGFR1 (Homo sapiens, UniProt P11362)
T16 construct: purchased Reaction Biology Corporation
In short: as §1

BLK = target: T17, BLK (Homo sapiens, UniProt P51451)
T17 construct: purchased Reaction Biology Corporation (assay service)
In short: as §1

ALK2/ACVR1 = target: T18, ALK2/ACVR1 (Homo sapiens, UniProt Q04771)
T18 construct: purchased Reaction Biology Corporation
In short: as §1

HPK1/MAP4K1 = target: T19, HPK1/MAP4K1 (Homo sapiens, UniProt Q92918)
T19 construct: purchased Reaction Biology Corporation
In short: as §1

MEKK3 = target: T20, MEKK3 (Homo sapiens, UniProt Q99759)
T20 construct: purchased Reaction Biology Corporation
In short: as §1

STK33 = target: T21, STK33 (Homo sapiens, UniProt Q9BYT3)
T21 construct: purchased Reaction Biology Corporation
In short: as §1

NEK7 = target: T22, NEK7 (Homo sapiens, UniProt Q8TDX7)
T22 construct: purchased Reaction Biology Corporation
In short: as §1

EPHB2 = target: T23, EPHB2 (Homo sapiens, UniProt P29323)
T23 construct: purchased Reaction Biology Corporation
In short: as §1

PIM3 = target: T24, PIM3 (Homo sapiens, UniProt Q86V86)
T24 construct: purchased Reaction Biology Corporation
In short: as §1

MST2/STK3 = target: T25, MST2/STK3 (Homo sapiens, UniProt Q13188)
T25 construct: purchased Reaction Biology Corporation
In short: as §1

SRPK2 = target: T26, SRPK2 (Homo sapiens, UniProt P78362)
T26 construct: purchased Reaction Biology Corporation
In short: as §1

P38a/MAPK14 = target: T27, P38a/MAPK14 (Homo sapiens, UniProt Q16539)
T27 construct: purchased Reaction Biology Corporation
In short: as §1

CTK/MATK = target: T28, CTK/MATK (Homo sapiens, UniProt P42679)
T28 construct: purchased Reaction Biology Corporation
In short: as §1

CDK6/cyclin D1 = target: T29, CDK6/cyclin D1 (Homo sapiens, UniProt Q00534)
T29 construct: purchased Reaction Biology Corporation
In short: as §1

PKD2/PRKD2 = target: T30, PKD2/PRKD2 (Homo sapiens, UniProt Q9BZL6)
T30 construct: purchased Reaction Biology Corporation
In short: as §1

FRK/PTK5 = target: T31, FRK/PTK5 (Homo sapiens, UniProt P42685)
T31 construct: purchased Reaction Biology Corporation
In short: as §1

c-MER = target: T32, c-MER (Homo sapiens, UniProt Q12866)
T32 construct: purchased Reaction Biology Corporation
In short: as §1

LKB1 = target: T33, LKB1 (Homo sapiens, UniProt Q15831)
T33 construct: purchased Reaction Biology Corporation
In short: as §1

CDK5/p25 = target: T34, CDK5/p25 (Homo sapiens, UniProt Q00535)
T34 construct: purchased Reaction Biology Corporation
In short: as §1

c-MET = target: T35, c-MET (Homo sapiens, UniProt P08581)
T35 construct: purchased Reaction Biology Corporation
In short: as §1

PKN2/PRK2 = target: T36, PKN2/PRK2 (Homo sapiens, UniProt Q16513)
T36 construct: purchased Reaction Biology Corporation
In short: as §1

DLK/MAP3K12 = target: T37, DLK/MAP3K12 (Homo sapiens, UniProt Q12852)
T37 construct: purchased Reaction Biology Corporation
In short: as §1

JAK1 = target: T38, JAK1 (Homo sapiens, UniProt P23458)
T38 construct: purchased Reaction Biology Corporation
In short: as §1

NEK3 = target: T39, NEK3 (Homo sapiens, UniProt P51956)
T39 construct: purchased Reaction Biology Corporation
In short: as §1

ASK1/MAP3K5 = target: T40, ASK1/MAP3K5 (Homo sapiens, UniProt Q99683)
T40 construct: purchased Reaction Biology Corporation
In short: as §1

T29 sequence (Q00534 whole entry): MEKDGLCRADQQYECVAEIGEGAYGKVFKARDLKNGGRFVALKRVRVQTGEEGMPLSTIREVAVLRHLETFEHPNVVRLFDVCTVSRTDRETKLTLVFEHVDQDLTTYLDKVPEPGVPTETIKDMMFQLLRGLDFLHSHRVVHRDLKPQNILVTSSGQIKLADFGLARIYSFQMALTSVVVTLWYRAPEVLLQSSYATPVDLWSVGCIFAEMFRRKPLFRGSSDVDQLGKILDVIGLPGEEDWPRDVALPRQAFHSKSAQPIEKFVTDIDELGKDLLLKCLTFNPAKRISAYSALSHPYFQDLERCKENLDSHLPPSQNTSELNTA
T29 sequence (P24385 whole entry partner): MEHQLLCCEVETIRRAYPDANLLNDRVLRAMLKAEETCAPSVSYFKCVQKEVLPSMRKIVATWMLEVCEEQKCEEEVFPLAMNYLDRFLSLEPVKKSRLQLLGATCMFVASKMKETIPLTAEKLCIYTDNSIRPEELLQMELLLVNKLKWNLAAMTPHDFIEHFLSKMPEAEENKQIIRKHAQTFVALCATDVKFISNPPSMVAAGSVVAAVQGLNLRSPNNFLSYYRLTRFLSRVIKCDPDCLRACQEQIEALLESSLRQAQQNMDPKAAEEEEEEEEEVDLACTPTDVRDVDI
T13 sequence (P51617 whole entry): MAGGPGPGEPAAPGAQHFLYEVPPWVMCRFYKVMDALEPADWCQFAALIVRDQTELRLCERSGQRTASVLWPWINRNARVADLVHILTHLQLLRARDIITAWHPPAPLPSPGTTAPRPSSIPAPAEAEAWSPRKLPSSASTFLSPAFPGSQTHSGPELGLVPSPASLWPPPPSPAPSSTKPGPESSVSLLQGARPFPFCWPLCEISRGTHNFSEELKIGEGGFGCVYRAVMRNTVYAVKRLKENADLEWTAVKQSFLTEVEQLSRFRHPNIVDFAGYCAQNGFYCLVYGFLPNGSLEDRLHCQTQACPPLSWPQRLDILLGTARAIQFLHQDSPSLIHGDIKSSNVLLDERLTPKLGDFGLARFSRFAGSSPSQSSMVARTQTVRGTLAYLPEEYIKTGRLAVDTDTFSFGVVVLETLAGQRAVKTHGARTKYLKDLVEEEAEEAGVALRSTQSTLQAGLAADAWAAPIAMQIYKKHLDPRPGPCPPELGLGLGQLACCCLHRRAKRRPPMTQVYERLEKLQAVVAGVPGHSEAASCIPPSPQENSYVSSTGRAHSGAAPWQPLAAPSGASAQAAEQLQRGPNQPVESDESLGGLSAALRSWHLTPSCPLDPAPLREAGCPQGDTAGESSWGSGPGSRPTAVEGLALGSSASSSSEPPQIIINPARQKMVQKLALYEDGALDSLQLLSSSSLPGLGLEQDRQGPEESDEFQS
T37 sequence (Q12852 whole entry): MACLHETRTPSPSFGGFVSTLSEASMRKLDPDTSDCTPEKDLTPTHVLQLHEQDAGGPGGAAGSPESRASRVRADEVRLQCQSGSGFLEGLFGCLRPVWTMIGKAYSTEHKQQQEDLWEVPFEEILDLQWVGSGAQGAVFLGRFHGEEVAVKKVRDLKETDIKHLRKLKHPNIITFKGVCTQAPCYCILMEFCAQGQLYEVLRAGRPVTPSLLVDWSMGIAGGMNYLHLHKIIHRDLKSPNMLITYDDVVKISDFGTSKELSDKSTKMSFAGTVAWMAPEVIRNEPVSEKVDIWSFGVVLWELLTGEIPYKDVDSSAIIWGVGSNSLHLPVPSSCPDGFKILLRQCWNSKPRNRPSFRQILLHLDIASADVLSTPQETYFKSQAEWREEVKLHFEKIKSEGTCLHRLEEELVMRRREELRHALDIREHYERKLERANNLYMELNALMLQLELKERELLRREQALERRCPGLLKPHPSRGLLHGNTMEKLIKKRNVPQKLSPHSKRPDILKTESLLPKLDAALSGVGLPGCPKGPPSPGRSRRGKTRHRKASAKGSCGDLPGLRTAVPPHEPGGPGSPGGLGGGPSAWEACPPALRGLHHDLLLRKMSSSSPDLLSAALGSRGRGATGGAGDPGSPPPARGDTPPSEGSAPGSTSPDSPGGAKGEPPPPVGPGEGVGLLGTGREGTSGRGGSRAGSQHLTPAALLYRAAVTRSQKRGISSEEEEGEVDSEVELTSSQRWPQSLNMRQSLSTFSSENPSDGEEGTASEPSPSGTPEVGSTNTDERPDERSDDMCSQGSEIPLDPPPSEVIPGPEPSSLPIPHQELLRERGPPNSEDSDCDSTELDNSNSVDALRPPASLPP
T19 sequence (Q92918 whole entry): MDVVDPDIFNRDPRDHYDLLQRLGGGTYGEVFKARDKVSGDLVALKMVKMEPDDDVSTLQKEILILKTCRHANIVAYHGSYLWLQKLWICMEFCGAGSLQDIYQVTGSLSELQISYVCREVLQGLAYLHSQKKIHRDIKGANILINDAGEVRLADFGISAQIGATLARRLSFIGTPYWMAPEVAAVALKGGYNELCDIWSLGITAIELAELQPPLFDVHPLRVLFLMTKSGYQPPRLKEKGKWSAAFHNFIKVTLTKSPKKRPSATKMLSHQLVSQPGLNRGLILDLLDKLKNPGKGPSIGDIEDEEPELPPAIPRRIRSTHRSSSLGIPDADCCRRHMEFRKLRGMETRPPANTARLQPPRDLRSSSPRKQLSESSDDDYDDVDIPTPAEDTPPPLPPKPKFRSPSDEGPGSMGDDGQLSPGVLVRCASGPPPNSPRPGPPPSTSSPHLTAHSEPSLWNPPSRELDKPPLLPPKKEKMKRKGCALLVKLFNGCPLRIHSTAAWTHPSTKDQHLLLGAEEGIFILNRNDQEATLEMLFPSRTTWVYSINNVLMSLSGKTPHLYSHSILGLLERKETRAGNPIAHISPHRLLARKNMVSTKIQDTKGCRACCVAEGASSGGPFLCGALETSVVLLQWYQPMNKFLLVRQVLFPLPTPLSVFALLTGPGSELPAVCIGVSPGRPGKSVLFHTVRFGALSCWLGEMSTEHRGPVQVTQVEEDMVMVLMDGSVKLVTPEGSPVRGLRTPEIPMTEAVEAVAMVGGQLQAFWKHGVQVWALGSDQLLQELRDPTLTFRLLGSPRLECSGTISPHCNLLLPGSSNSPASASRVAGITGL
T23 sequence (P29323 19-1055): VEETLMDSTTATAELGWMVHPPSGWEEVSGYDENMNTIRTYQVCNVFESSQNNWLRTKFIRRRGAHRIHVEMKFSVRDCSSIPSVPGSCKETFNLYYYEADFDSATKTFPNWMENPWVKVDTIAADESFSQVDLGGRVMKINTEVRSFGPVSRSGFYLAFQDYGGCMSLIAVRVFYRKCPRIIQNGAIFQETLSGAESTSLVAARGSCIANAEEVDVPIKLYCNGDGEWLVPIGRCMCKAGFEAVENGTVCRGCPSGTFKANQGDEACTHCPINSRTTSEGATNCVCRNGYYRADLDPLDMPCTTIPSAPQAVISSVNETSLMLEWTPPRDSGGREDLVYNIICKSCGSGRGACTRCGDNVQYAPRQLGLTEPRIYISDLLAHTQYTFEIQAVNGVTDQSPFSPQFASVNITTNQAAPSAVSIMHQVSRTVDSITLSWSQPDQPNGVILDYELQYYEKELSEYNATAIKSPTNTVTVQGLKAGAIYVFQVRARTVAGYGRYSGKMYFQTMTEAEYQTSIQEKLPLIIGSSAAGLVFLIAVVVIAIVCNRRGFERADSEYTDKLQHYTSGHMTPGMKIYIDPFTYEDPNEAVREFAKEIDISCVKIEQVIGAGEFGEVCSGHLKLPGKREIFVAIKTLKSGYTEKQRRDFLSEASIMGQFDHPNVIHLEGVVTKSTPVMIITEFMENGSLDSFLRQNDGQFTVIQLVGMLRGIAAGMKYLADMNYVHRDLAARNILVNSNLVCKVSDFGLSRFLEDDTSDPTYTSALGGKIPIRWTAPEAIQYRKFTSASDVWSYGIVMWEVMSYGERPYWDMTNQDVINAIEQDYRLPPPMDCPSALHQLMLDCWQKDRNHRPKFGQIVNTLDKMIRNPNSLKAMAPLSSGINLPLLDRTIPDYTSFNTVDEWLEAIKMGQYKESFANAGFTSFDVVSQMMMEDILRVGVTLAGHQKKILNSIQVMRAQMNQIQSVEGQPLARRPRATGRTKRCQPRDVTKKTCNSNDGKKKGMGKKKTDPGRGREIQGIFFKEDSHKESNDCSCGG
T17 sequence (P51451 whole entry): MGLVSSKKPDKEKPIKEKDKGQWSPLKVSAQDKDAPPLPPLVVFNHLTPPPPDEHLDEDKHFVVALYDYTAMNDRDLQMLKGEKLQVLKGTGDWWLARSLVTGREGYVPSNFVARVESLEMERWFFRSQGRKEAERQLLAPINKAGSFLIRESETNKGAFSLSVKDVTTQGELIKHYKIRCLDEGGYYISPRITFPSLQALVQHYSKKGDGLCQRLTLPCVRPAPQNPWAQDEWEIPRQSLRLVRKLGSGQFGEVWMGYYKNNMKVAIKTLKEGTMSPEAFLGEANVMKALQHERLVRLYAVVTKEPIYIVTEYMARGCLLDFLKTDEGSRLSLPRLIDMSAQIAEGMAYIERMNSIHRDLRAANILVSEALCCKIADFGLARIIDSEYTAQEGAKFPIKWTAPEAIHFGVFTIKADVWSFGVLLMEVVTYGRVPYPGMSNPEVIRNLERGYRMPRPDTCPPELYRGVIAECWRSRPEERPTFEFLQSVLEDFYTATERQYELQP
T11 sequence (O75716 whole entry): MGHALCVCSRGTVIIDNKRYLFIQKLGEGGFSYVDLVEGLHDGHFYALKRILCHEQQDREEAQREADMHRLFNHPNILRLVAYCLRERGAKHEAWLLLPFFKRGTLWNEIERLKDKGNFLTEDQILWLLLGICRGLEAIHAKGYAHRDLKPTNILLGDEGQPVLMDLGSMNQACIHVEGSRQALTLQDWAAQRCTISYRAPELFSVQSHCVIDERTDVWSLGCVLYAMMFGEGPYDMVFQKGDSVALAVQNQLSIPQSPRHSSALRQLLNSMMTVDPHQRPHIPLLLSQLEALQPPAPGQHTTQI

COc1cc(Nc2ncc(F)c(Nc3ccc4c(n3)NC(=O)C(C)(C)O4)n2)cc(OC)c1OC [R406, reference compound]
remaining activity at 0.5 µM (RSK1): 66.9%
remaining activity at 0.5 µM (BRSK1): 61.6%
remaining activity at 0.5 µM (TBK1): 13.9%
remaining activity at 0.5 µM (CLK1): 61.7%
remaining activity at 0.5 µM (DYRK1B): 72.5%
remaining activity at 0.5 µM (ZAP70): 43.5%
remaining activity at 0.5 µM (TYK1/LTK): 30.2%
remaining activity at 0.5 µM (PKCa): 58.3%
remaining activity at 0.5 µM (ACK1): 0.6%
remaining activity at 0.5 µM (CLK3): 89.4%
remaining activity at 0.5 µM (STK16): 6.3%
remaining activity at 0.5 µM (MYO3b): 94.1%
remaining activity at 0.5 µM (IRAK1): 13.5%
remaining activity at 0.5 µM (EPHA4): 42.8%
remaining activity at 0.5 µM (GRK7): 89.6%
remaining activity at 0.5 µM (FGFR1): 29%
remaining activity at 0.5 µM (BLK): 16.7%
remaining activity at 0.5 µM (ALK2/ACVR1): 135%
remaining activity at 0.5 µM (HPK1/MAP4K1): 98.8%
remaining activity at 0.5 µM (MEKK3): 76.1%
remaining activity at 0.5 µM (STK33): 41.5%
remaining activity at 0.5 µM (NEK7): 62.3%
remaining activity at 0.5 µM (EPHB2): 69.5%
remaining activity at 0.5 µM (PIM3): 82.8%
remaining activity at 0.5 µM (MST2/STK3): 97.9%
remaining activity at 0.5 µM (SRPK2): 104%
remaining activity at 0.5 µM (P38a/MAPK14): 99.9%
remaining activity at 0.5 µM (CTK/MATK): 120%
remaining activity at 0.5 µM (CDK6/cyclin D1): 93.4%
remaining activity at 0.5 µM (PKD2/PRKD2): 75.2%
remaining activity at 0.5 µM (FRK/PTK5): 35%
remaining activity at 0.5 µM (c-MER): 73.9%
remaining activity at 0.5 µM (LKB1): 69.3%
remaining activity at 0.5 µM (CDK5/p25): 79.4%
remaining activity at 0.5 µM (c-MET): 71.4%
remaining activity at 0.5 µM (PKN2/PRK2): 85.4%
remaining activity at 0.5 µM (DLK/MAP3K12): 70.6%
remaining activity at 0.5 µM (JAK1): 0%
remaining activity at 0.5 µM (NEK3): 19.2%
remaining activity at 0.5 µM (ASK1/MAP3K5): 97.1%
